From BindingDB's records for doi:10.3109/14756366.2010.548329 (Sun Yat-sen University, 2011)

Experiments:
Acetylcholinesterase = Acetylcholinesterase (Electrophorus electricus, UniProt O42275); experiment: Enzyme Inhibition Assay; settings: pH 8; 37 °C
Protocol: (§1) Enzyme solutions were prepared to give 2.0 units/mL in 2 mL aliquots. The assay medium contained phosphate buffer, pH 8.0 (1 mL), 50 μL of 0.01 M DTNB, 10 μL of enzyme, and 50 μL of 0.01 M substrate (ATC). The substrate was added to the assay medium containing enzyme, buffer, and DTNB with inhibitor after 15 min of incubation time. […] In vitro BuChE assay use the similar method described above.

Cholinesterase = Cholinesterase (Equus caballus, UniProt P81908); experiment: Enzyme Inhibition Assay; settings: pH 8; 37 °C
Protocol: as §1

Chain of Acetylcholinesterase (O42275 whole entry): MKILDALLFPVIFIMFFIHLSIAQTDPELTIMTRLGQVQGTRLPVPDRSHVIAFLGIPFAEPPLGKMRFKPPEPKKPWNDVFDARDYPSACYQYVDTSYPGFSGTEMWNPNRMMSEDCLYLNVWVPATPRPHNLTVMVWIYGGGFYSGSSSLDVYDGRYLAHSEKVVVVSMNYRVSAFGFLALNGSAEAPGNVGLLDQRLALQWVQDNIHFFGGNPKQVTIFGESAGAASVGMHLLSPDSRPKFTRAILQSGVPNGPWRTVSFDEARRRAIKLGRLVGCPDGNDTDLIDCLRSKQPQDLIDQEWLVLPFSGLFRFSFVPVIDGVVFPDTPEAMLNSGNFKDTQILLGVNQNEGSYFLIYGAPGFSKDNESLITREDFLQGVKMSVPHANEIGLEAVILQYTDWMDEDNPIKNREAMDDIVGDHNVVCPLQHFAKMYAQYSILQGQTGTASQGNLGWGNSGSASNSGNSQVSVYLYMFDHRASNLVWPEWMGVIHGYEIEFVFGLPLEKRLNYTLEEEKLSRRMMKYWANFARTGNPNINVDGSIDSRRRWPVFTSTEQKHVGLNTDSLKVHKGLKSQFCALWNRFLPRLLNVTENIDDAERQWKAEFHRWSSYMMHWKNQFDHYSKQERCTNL
Chain of Cholinesterase (P81908 whole entry): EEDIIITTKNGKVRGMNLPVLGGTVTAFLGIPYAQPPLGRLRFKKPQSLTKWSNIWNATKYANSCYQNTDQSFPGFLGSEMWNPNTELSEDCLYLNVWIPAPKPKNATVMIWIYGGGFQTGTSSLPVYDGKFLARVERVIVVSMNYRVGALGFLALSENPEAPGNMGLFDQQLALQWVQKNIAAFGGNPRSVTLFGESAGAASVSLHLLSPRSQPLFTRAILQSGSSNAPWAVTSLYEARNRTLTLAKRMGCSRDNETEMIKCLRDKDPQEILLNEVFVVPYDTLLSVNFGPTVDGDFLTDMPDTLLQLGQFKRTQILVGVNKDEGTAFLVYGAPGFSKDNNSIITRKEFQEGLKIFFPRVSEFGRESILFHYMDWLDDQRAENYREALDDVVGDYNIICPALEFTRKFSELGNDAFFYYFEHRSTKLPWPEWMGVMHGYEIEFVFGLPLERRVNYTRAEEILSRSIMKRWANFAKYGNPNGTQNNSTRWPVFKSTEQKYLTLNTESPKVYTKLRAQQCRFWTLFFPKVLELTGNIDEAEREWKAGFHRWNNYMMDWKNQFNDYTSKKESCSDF

Row | Compound | IC50 (Acetylcholinesterase) [µM] | IC50 (Cholinesterase) [µM]
1 | COc1cc(CNCCCCCCCCNCc2cc(OC)c3c(c2)OCO3)cc2c1OCO2 [N1, N8-bis((7-methoxybenzo[d][1,3]dioxol-5-yl)methyl)octane-1,8-diamine (5f)] | 2.79 | 3.11
2 | COc1cc(CNCCCNCc2cc(OC)c3c(c2)OCO3)cc2c1OCO2 [N1,N3-bis((7-methoxybenzo[d][1,3]dioxol-5-yl)methyl)propane-1,3-diamine (5a)] | > 125 | 52.3
3 | COc1cc(CNCCCCNCc2cc(OC)c3c(c2)OCO3)cc2c1OCO2 [N1,N4-bis((7-methoxybenzo[d][1,3]dioxol-5-yl)methyl)butane-1,4-diamine (5b)] | 120 | 12.1
4 | COc1cc(CNCCCCCNCc2cc(OC)c3c(c2)OCO3)cc2c1OCO2 [N1,N5-bis((7-methoxybenzo[d][1,3]dioxol-5-yl)methyl)pentane-1,5-diamine (5c)] | 13.2 | 3.35
5 | COc1cc(CNCCCCCCNCc2cc(OC)c3c(c2)OCO3)cc2c1OCO2 [N1,N6-bis((7-methoxybenzo[d][1,3]dioxol-5-yl)methyl)hexane-1,6-diamine (5d)] | 9.78 | 2.07
6 | COc1cc(CNCCCCCCCNCc2cc(OC)c3c(c2)OCO3)cc2c1OCO2 [N1,N7-bis((7-methoxybenzo[d][1,3]dioxol-5-yl)methyl)heptane-1,7-diamine (5e)] | 4.24 | 3.02
7 | COc1cc(CNCCCCCCCCCNCc2cc(OC)c3c(c2)OCO3)cc2c1OCO2 [N1,N9-bis((7-methoxybenzo[d][1,3]dioxol-5-yl)methyl)nonane-1,9-diamine (5g)] | 2.76 | 5.14
